Measured values as given in patent US11771709B2, “ALK protein degradation agent and anti-tumor application thereof” (ShanghaiTech University, priority 2017, dated 2023).

Columns and labels:
Assay type in all cases: cell-based
[1] = biological target: T1, ALK protein in H3122 (EML4-ALK) cells (Homo sapiens, UniProt Q9UM73); assay: Western blot of ALK protein level (degradation, DC50), ALK phosphorylation and downstream signaling in H3122 cells; conditions: ALK protein degradation in H3122 cells
T1 construct: EML4 (Echinoderm microtubule-associated protein-like 4, Q9HC35) fusion partner, variant 1; host or cells: NCI-H3122 lung adenocarcinoma cells; the other entry of the earlier key: EML4 (Q9HC35, Echinoderm microtubule-associated protein-like 4)

SR (NPM-ALK) cells = assay: Growth inhibition IC50 in ALCL SR cells (CCK8/WST, 72 hours); conditions: 72 h, SR cells, WST; Brigatinib-based PROTAD molecules (Table 3)
[2] = biological target: T2, ALK protein in SR (NPM-ALK) cells (Homo sapiens, UniProt Q9UM73); assay: Western blot of ALK protein level (degradation, DC50), ALK phosphorylation and downstream signaling in SR cells; conditions: ALK protein degradation in SR cells
T2 construct: NPM (nucleophosmin, NPM1, P06748) fusion partner; host or cells: SR (ALCL) cells; the other entry of the earlier key: NPM1 (P06748, Nucleophosmin)
T2 sequence (Q9UM73 with tags, fused parts or gaps): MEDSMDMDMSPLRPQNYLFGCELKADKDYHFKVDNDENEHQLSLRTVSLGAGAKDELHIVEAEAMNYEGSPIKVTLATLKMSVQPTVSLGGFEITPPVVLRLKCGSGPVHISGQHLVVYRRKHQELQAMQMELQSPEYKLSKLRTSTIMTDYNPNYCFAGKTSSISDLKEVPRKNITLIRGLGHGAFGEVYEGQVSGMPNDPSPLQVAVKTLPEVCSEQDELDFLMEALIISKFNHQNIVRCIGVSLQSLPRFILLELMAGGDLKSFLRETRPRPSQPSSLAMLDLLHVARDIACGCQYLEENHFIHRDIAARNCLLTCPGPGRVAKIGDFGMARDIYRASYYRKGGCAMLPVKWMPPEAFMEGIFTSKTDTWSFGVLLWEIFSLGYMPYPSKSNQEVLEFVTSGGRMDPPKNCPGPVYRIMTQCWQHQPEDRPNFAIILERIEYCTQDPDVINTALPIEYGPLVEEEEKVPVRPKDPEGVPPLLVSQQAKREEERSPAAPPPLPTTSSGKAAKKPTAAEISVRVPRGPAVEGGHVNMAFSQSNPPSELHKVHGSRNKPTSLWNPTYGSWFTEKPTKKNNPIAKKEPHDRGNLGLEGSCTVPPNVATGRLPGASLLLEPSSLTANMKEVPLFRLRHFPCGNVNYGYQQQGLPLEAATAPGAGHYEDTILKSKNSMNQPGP

T1 sequence (Q9UM73 with tags, fused parts or gaps): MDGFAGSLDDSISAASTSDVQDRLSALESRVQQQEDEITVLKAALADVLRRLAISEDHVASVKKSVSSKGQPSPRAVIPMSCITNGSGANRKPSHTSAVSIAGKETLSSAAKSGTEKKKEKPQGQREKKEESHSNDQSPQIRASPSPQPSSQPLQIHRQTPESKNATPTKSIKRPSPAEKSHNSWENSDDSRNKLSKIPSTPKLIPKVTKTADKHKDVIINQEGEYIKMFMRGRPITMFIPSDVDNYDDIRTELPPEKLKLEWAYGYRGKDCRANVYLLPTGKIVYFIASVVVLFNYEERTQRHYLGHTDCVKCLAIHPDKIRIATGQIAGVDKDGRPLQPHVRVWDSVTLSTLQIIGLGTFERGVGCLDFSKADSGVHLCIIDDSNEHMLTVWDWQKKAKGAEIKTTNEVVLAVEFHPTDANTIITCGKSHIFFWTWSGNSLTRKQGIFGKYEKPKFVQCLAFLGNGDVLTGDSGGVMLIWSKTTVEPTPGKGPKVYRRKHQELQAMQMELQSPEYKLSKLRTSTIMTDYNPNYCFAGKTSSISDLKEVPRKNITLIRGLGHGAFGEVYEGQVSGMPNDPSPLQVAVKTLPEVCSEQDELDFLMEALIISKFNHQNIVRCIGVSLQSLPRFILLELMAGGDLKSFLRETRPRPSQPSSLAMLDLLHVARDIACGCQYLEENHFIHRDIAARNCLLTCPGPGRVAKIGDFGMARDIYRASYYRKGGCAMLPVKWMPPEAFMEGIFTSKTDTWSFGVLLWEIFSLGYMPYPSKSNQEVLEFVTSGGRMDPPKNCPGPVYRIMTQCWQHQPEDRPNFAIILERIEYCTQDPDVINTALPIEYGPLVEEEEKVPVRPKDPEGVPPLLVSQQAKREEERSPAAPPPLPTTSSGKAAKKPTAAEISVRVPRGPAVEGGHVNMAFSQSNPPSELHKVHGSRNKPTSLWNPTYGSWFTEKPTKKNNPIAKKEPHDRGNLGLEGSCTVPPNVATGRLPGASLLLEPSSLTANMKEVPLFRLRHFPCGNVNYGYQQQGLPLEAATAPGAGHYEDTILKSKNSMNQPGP

Row | DC50 [1] [nM] | DC50 [2] [nM] | SMILES | IC50 (SR (NPM-ALK) cells) [nM]
1 | 100 to 500 | 100 to 500 | COc1cc(N2CCC(N3CCN(C(=O)CCOCCOCCOCCOCCC(=O)N[C@H](C(=O)N4C[C@H](O)C[C@H]4C(=O)NCc4ccc(-c5scnc5C)cc4)C(C)(C)C)CC3)CC2)ccc1Nc1ncc(Cl)c(Nc2ccccc2P(C)(C)=O)n1 [SIAIS164034, (2S,4R)-1-((S)-2-(tert-butyl)-19-(4-(1-(4-((5-chloro-4-((2-(dimethylphosphoryl)phenyl)amino)pyrimidin-2-yl)amino)-3-methoxyphenyl)piperidin-4-yl)piperazin-1-yl)-4,19-dioxo-7,10,13,16-tetraoxa-3-azanonadecanoyl)-4-hydroxy-N-(4-(4-methylthiazol-5-yl)benzyl)pyrrolidine-2-carboxamide] | 88.6 ± 63
2 | 100 to 500 | 100 to 500 | COc1cc(N2CCC(N3CCN(C(=O)CCOCCOCCOCCOCCOCCC(=O)N[C@H](C(=O)N4C[C@H](O)C[C@H]4C(=O)NCc4ccc(-c5scnc5C)cc4)C(C)(C)C)CC3)CC2)ccc1Nc1ncc(Cl)c(Nc2ccccc2P(C)(C)=O)n1 [SIAIS164035, (2S,4R)-1-((S)-2-(tert-butyl)-22-(4-(1-(4-((5-chloro-4-((2-(dimethylphosphoryl)phenyl)amino)pyrimidin-2-yl)amino)-3-methoxyphenyl)piperidin-4-yl)piperazin-1-yl)-4,22-dioxo-7,10,13,16,19-pentaoxa-3-azadocosanoyl)-4-hydroxy-N-(4-(4-methylthiazol-5-yl)benzyl)pyrrolidine-2-carboxamide] | 41.8 ± 24.7
3 | 10 to 500 | 10 to 50 | COc1cc(N2CCC(N3CCN(C(=O)COCCOCC(=O)N[C@H](C(=O)N4C[C@H](O)C[C@H]4C(=O)NCc4ccc(-c5scnc5C)cc4)C(C)(C)C)CC3)CC2)ccc1Nc1ncc(Cl)c(Nc2ccccc2P(C)(C)=O)n1 [SIAIS164041, (2S,4R)-1-((S)-2-(2-(2-(2-(4-(1-(4-((5-chloro-4-((2-(dimethylphosphoryl)phenyl)amino)pyrimidin-2-yl)amino)-3-methoxyphenyl)piperidin-4-yl)piperazin-1-yl)-2-oxoethoxy)ethoxy)acetamido)-3,3-dimethylbutanoyl)-4-hydroxy-N-(4-(4-methylthiazol-5-yl)benzyl)pyrrolidine-2-carboxamide] | 42.7 ± 29.4
4 | 10 to 100 | 1 to 10 | COc1cc(N2CCC(N3CCN(C(=O)CCC(=O)N[C@H](C(=O)N4C[C@H](O)C[C@H]4C(=O)NCc4ccc(-c5scnc5C)cc4)C(C)(C)C)CC3)CC2)ccc1Nc1ncc(Cl)c(Nc2ccccc2P(C)(C)=O)n1 [SIAIS164120, (2S,4R)-1-((S)-2-(4-(4-(1-(4-((5-chloro-4-((2-(dimethylphosphoryl)phenyl)amino)pyrimidin-2-yl)amino)-3-methoxyphenyl)piperidin-4-yl)piperazin-1-yl)-4-oxobutanamido)-3,3-dimethylbutanoyl)-4-hydroxy-N-(4-(4-methylthiazol-5-yl)benzyl)pyrrolidine-2-carboxamide] | 19.2 ± 8.8
5 | 50 to 100 | 1 to 10 | COc1cc(N2CCC(N3CCN(C(=O)CCCC(=O)N[C@H](C(=O)N4C[C@H](O)C[C@H]4C(=O)NCc4ccc(-c5scnc5C)cc4)C(C)(C)C)CC3)CC2)ccc1Nc1ncc(Cl)c(Nc2ccccc2P(C)(C)=O)n1 [SIAIS164121, (2S,4R)-1-((S)-2-(5-(4-(1-(4-((5-chloro-4-((2-(dimethylphosphoryl)phenyl)amino)pyrimidin-2-yl)amino)-3-methoxyphenyl)piperidin-4-yl)piperazin-1-yl)-5-oxopentanamido)-3,3-dimethylbutanoyl)-4-hydroxy-N-(4-(4-methylthiazol-5-yl)benzyl)pyrrolidine-2-carboxamide] | 21.6 ± 12.5
6 | 50 to 100 | 1 to 50 | COc1cc(N2CCC(N3CCN(C(=O)CCCCC(=O)N[C@H](C(=O)N4C[C@H](O)C[C@H]4C(=O)NCc4ccc(-c5scnc5C)cc4)C(C)(C)C)CC3)CC2)ccc1Nc1ncc(Cl)c(Nc2ccccc2P(C)(C)=O)n1 [SIAIS164122, (2S,4R)-1-((S)-2-(6-(4-(1-(4-((5-chloro-4-((2-(dimethylphosphoryl)phenyl)amino)pyrimidin-2-yl)amino)-3-methoxyphenyl)piperidin-4-yl)piperazin-1-yl)-6-oxohexanamido)-3,3-dimethylbutanoyl)-4-hydroxy-N-(4-(4-methylthiazol-5-yl)benzyl)pyrrolidine-2-carboxamide] | 12.1 ± 9.2
7 | 10 to 50 | 1 to 50 | COc1cc(N2CCC(N3CCN(C(=O)CCCCCC(=O)N[C@H](C(=O)N4C[C@H](O)C[C@H]4C(=O)NCc4ccc(-c5scnc5C)cc4)C(C)(C)C)CC3)CC2)ccc1Nc1ncc(Cl)c(Nc2ccccc2P(C)(C)=O)n1 [SIAIS164123, (2S,4R)-1-((S)-2-(7-(4-(1-(4-((5-chloro-4-((2-(dimethylphosphoryl)phenyl)amino)pyrimidin-2-yl)amino)-3-methoxyphenyl)piperidin-4-yl)piperazin-1-yl)-7-oxoheptanamido)-3,3-dimethylbutanoyl)-4-hydroxy-N-(4-(4-methylthiazol-5-yl)benzyl)pyrrolidine-2-carboxamide] | 11.4 ± 8.1
8 | 100 to 500 | 1 to 10 | COc1cc(N2CCC(N3CCN(C(=O)CCCCCCC(=O)N[C@H](C(=O)N4C[C@H](O)C[C@H]4C(=O)NCc4ccc(-c5scnc5C)cc4)C(C)(C)C)CC3)CC2)ccc1Nc1ncc(Cl)c(Nc2ccccc2P(C)(C)=O)n1 [SIAIS164124, (2S,4R)-1-((S)-2-(8-(4-(-(4-((5-chloro-4-((2-(dimethylphosphoryl)phenyl)amino)pyrimidin-2-yl)amino)-3-methoxyphenyl)piperidin-4-yl)piperazin-1-yl)-8-oxooctanamido)-3,3-dimethylbutanoyl)-4-hydroxy-N-(4-(4-methylthiazol-5-yl)benzyl)pyrrolidine-2-carboxamide] | 9.5 ± 8.1
9 | 10 to 50 | 1 to 10 | COc1cc(N2CCC(N3CCN(C(=O)CCCCCCCC(=O)N[C@H](C(=O)N4C[C@H](O)C[C@H]4C(=O)NCc4ccc(-c5scnc5C)cc4)C(C)(C)C)CC3)CC2)ccc1Nc1ncc(Cl)c(Nc2ccccc2P(C)(C)=O)n1 [SIAIS164125, (2S,4R)-1-((S)-2-(9-(4-(1-(4-((5-chloro-4-((2-(dimethylphosphoryl)phenyl)amino)pyrimidin-2-yl)amino)-3-methoxyphenyl)piperidin-4-yl)piperazin-1-yl)-9-oxononanamido)-3,3-dimethylbutanoyl)-4-hydroxy-N-(4-(4-methylthiazol-5-yl)benzyl)pyrrolidine-2-carboxamide] | 9 ± 5.7
10 | 10 to 50 | 1 to 10 | COc1cc(N2CCC(N3CCN(C(=O)CCCCCCCCC(=O)N[C@H](C(=O)N4C[C@H](O)C[C@H]4C(=O)NCc4ccc(-c5scnc5C)cc4)C(C)(C)C)CC3)CC2)ccc1Nc1ncc(Cl)c(Nc2ccccc2P(C)(C)=O)n1 [SIAIS164126, (2S,4R)-1-((S)-2-(10-(4-(1-(4-((5-chloro-4-((2-(dimethylphosphoryl)phenyl)amino)pyrimidin-2-yl)amino)-3-methoxyphenyl)piperidin-4-yl)piperazin-1-yl)-10-oxodecanamido)-3,3-dimethylbutanoyl)-4-hydroxy-N-(4-(4-methylthiazol-5-yl)benzyl)pyrrolidine-2-carboxamide] | 8 ± 6.7
11 | 50 to 100 | 1 to 10 | COc1cc(N2CCC(NC(=O)CCC(=O)N[C@H](C(=O)N3C[C@H](O)C[C@H]3C(=O)NCc3ccc(-c4scnc4C)cc3)C(C)(C)C)CC2)ccc1Nc1ncc(Cl)c(Nc2ccccc2P(C)(C)=O)n1 [SIAIS164143, N1-(1-(4-((5-chloro-4-((2-(dimethylphosphoryl)phenyl)amino)pyrimidin-2-yl)amino)-3-methoxyphenyl)piperidin-4-yl)-N4-((S)-1-((2S,4R)-4-hydroxy-2-((4-(4-methylthiazol-5-yl)benzyl)carbamoyl)pyrrolidin-1-yl)-3,3-dimethyl-1-oxobutan-2-yl) succinamide] | 11.7 ± 4.2
12 | 20 to 100 | 1 to 10 | COc1cc(N2CCC(NC(=O)CCCC(=O)N[C@H](C(=O)N3C[C@H](O)C[C@H]3C(=O)NCc3ccc(-c4scnc4C)cc3)C(C)(C)C)CC2)ccc1Nc1ncc(Cl)c(Nc2ccccc2P(C)(C)=O)n1 [SIAIS164144, N1-(1-(4-((5-chloro-4-((2-(dimethylphosphoryl)phenyl)amino)pyrimidin-2-yl)amino)-3-methoxyphenyl)piperidin-4-yl)-N5-((S)-1-((2S,4R)-4-hydroxy-2-((4-(4-methylthiazol-5-yl)benzyl)carbamoyl)pyrrolidin-1-yl)-3,3-dimethyl-1-oxobutan-2-yl)glutaramide] | 13.6 ± 9.1
13 | 50 to 100 | 1 to 10 | COc1cc(N2CCC(NC(=O)CCCCC(=O)N[C@H](C(=O)N3C[C@H](O)C[C@H]3C(=O)NCc3ccc(-c4scnc4C)cc3)C(C)(C)C)CC2)ccc1Nc1ncc(Cl)c(Nc2ccccc2P(C)(C)=O)n1 [SIAIS164145, N1-(1-(4-((5-chloro-4-((2-(dimethylphosphoryl)phenyl)amino)pyrimidin-2-yl)amino)-3-methoxyphenyl)piperidin-4-yl)-N6-((S)-1-((2S,4R)-4-hydroxy-2-((4-(4-methylthiazol-5-yl)benzyl)carbamoyl)pyrrolidin-1-yl)-3,3-dimethyl-1-oxobutan-2-yl)adipamide] | 10.3 ± 6.3
